Data as given in US7094760B2, “Peptides for treatment of inflammation and shock” (Salpep Biotechnology, Inc., priority 1996, dated 2006).
“Also recorded” adds a separate entry of the source.

Legend:
[1] = tested on: ovalbumin-sensitized Hooded-Listar rats; experiment: anaphylactic perturbation of intestinal motility, Example 9; type: in vivo, rat; conditions: intravenously at 100 μg/kg, 20 min before challenge
Method: Animals and Tissue Preparation: Male Hooded-Listar rats were sensitized to egg albumin (ovalbumin; OA). Two weeks after sensitization, the animals had electrodes implanted into the muscle of the jejunum for recording muscle electrical activity. One week later, the fasted rats received SGP-T or an analogue, either intravenously (injection via penile vein under halothane anaesthesia) or orally (via gastric tube), 20 min before challenge with OA, or bovine serum albumin as control, by intragastric administration.
The disruption of intestinal migrating myoelectric complexes (MMCs) (Scott et al., (1988), J. Physiol., v. 255, pp. G505–511), a measure of intestinal activity, and the presence of diarrhea were used as biological measurements of anaphylaxis.

[2] = tested on: ovalbumin-sensitized Sprague-Dawley rats; experiment: anaphylactic hypotension (VPSP), ovalbumin-sensitized rats, Example 8; type: in vivo, rat; conditions: intravenous, 100 μg/kg, 10 min prior to antigen
Method: Animals and Tissue Preparation: Male Sprague-Dawley rats were sensitized to egg albumin (ovalbumin; OA) with 50 ng of Pertussin bortella toxin as an adjuvant. Four to six weeks after sensitization, the rats were anesthetized with sodium pentobarbital. A tracheal tube was inserted and a cannula was inserted into the left ventricle for measuring ventricular peak systolic pressure (VPSP). This cannula was coupled to a blood pressure transducer. A cannula was also inserted into the jugular view for administration of peptide (100 μg/kg) and antigen (100 μg of OA). The peptides were injected intravenously 10 min prior to antigen injection and blood pressure was recorded for 30 min.
In a second study, the peptide feG (D-phenylalanine, D-glutamate, glycine) was administered orally by a stomach tube 1 hour prior to intravenous injection of the sensitizing antigen.
Data Analysis: The percent changes in VSPS induced by anaphyalctic reaction were calculated relative to baseline VPSP. Significance differences within groups were determined with one-way analysis of variance (ANOVA), and between groups with the Student t-test.

[3] = tested on: LPS (Salmonella typhosa)-induced hypotension in sialadenectomized rats; experiment: endotoxin (LPS)-induced hypotension, sialadenectomized rats; type: in vivo, rat
Method: The animal model of endotoxic shock used involves intravenous injection of endotoxin (3.5 mg/kg of lipopolysaccharide (LPS) from Salmonella typhosa) into pentobarbital-anaesthetized Sprague-Dawley rats, to produce a fall in mean arterial blood pressure within 3 to 5 minutes. The endotoxin was injected slowly over 1 min. via the jugular vein, and mean arterial blood pressure in mm mercury (MABP) was monitored continuously for 60 min, with the average blood pressure being calculated at 15, 30, 45 and 60 min. Studies were performed on unoperated rats and rats with their submandibular glands removed (sialadenectomized).
The results shown in Table 1 are the averages of three different experiments using the protocol defined above. The data shown represent the average decrease in MABP (dec MABP) and the % Decrease in MABP over the 60 minutes following LPS administration. SGP-S (100μg/kg) and SGP-T (100 μg/kg) were administered 90 min. before LPS. […] Neither SGP-T nor SGP-S, when given prior to the LPS challenge, had appreciable effects on MABP.
The dose-response relationship of the inhibitory effect of SGP-T and SGP-S on endotoxin-induced hypotension was also examined and the results are shown in FIG. 1.

rat neutrophils = experiment: superoxide anion production in vitro, rat neutrophils; type: cell-based
Method: Neutrophils (10^6) were suspended in PBS buffer of the following composition: NaCl 137 mM, KCl 2.7 mM, Na2HPO4, 8.1 mM, KH2PO4 1.47 mM, CaCl2 1.19 mM, MgCl2 0.54 mM, glucose 7.5 mM and cytochrome C 1.5 mM (Sigma Chemical Co. St. Louis, […].) incubated at 37 C. Each sample was read along with a reference sample containing 1440 units of superoxide dismutase (Sigma) in a spectrophotometer (Hitachi, U200 spectrophotometer). The rate of superoxide production in response to 10^−7M phorbol myristate acetate (PMA) or 10^−5 M N-formyl-methionyl-leucyl-phenylalanine (fMLP) was then inferred from the slope. (Derian et al., (1996), Biochemistry 35(4): 1265–9).
Neutrophils obtained either from carrageenin-soaked sponges implanted subcutaneously in rats, or from the blood of healthy human volunteers, were preincubated with various doses of SGP-T for 30 minutes, then stimulated with 10^−7M PMA and the rate of superoxide anion production determined. At doses less than 1 μM, SGP-T inhibited superoxide anion production by both rat and human neutrophils, although the rat neutrophils were approximately 10-fold less sensitive than human neutrophils to this inhibitor effect (FIG. 6). At higher doses of the peptide(>1 μM), an enhancement of superoxide anion production was evident with human neutrophils.
At 0.001 and 0.01 μM SGP-T, O2^− production was inhibited by 15 to 20% in human neutrophils, while 10-fold higher concentrations were required for such inhibition with rat neutrophils. Much higher concentrations of SGP-T (10 and 20 μM) stimulated O2^− production by human neutrophils. Each value is presented as the mean ±SEM, and the number of experiments was between 6 and 12.

[4] = tested on: ovalbumin-sensitized Sprague-Dawley rats, submandibular glands removed; experiment: anaphylactic hypotension and heart function (VPSP, dP/dt), Example 10; type: in vivo, rat; conditions: for integrated (average) decrease in VPSP over the 30 min: 10 min prior to antigen, saline control 46.2±6.5
Method: Methods: Sprague-Dawley rats (200–300 g) were sensitized with 1 mg ovalbumin and 50 ng Pertussin toxin (Sigma) (24) one month prior to experimentation. The submandibular glands were removed bilaterally 7 days prior to the experiment by previously described procedures (23). Rats were anesthetized with sodium pentobarbital (65 mg/kg) and a tracheal tube (PE240 polyethylene tubing) was inserted before performing further surgeries. The jugular vein was-cannulated for injection of ovalbumin antigen, which was given as a bolus (100 μg/kg) over 10 sec. The right carotid artery was cannulated and the cannula tip was slowly advanced into the left ventricle, as detected when diastolic pressure fell to near 0 mmHg. The ventricular cannula was connected to a TXD-310 transducer and heart function parameters were recorded using a Digi-Med Heart Performance Analyser (Micro-Med, Louisville, Ky.). The effects of anaphylaxis on heart function were analysed by comparing the changes in ventricular peak systolic pressure (VPSP), and in the rate of ventricular contraction during systole (dP/dt) and relaxation during distole (−dP/dt). Antigen was injected at 10 min. The anaphylactic response was followed for 30 min.
Very rapidly (within 1 min) after the intravenous injection of antigen into ovalbumin-sensitized rats, VPSP dropped and minimal ventricular pressures were measured at 5 min after initiation of the anaphylactic reaction.
To determine if anaphylaxis directly affected heart function, the percent changes in VPSP were plotted against percent changes in dP/dt and −dP/dt. […] By analysis of variance, the slopes of the regression lines of dP/dt and −dP/dt were not different from unity.

[5] = peptide 100 μg/kg 90 min before LPS 3.5 mg/kg iv

In the case of “NH2-Thr-Asp-Ile-Phe-Glu-Gly-Gly-COOH (H-TDIFEGG-OH) [SGP-T, submandibular gland peptide T, TDIFEGG]”, the “intestinal anaphylaxis induced by OA” value [1] is reported as “prevented or reduced”, the “anaphylactic hypotension (VPSP)” value [2] is reported as “significantly inhibited” and the prevention of shock ([3]; doses higher than 10 μg/kg) is reported as “less effective”. For the same substance, the “LPS-provoked drop in blood pressure” value ([3]; doses of 1, 3.5 and 10 μg/kg) was “significantly prevented”, the “decrease in blood pressure induced by LPS, dose-response” value ([3]; intravenously 1.5 hours before LPS) was “dose-dependently inhibited” and the “% Dec = percent decrease in MABP relative to MABPbef” value [3, 5] was −36.3 ± 3.3%. The “MABPaft = average MABP for 60 mins after LPS injection” value [3, 5] was 77.2 ± 3.9 mm Hg, the “dec MABP = decrease in MABP after LPS relative to MABPbef” value [3, 5] was −46.1 ± 4.9 mm Hg and the superoxide anion production (rat neutrophils; doses less than 1 μM, 10^−7M PMA) was “inhibited”. The “sensitivity of rat neutrophils relative to human neutrophils (less sensitive)” value (rat neutrophils; inhibition of superoxide anion production) was “approximately 10 fold”, the “higher concentrations required for 15 to 20% inhibition versus human neutrophils” value (rat neutrophils; relative to 0.001 and 0.01 μM in human neutrophils) was 10 fold and the “integrated (average) decrease in VPSP over the 30 min” value ([4]; 10 μg/kg) was 16.7±8.3 mm Hg. For the same substance, the “integrated (average) decrease in VPSP over the 30 min” value ([4]; 100 μg/kg) was 15.9±8.0 mm Hg, the “VPSP by the end of the experiment” value ([4]; 10 and 100 μg/kg, 30 min after antigen) was “attained pre-antigen values” and the “initial anaphylactic reaction (initial blood pressure drop)” value ([4]; FIG. 12) was “does not prevent”. The sustained anaphylactic reaction ([4]; FIG. 12) was “does prevent”, the “drop in blood pressure elicited by the anaphylactic reaction” value ([4]; doses of 35 and 100 μg/kg) was “significantly reduced” and the “anaphylactic hypotension / decrease in VPSP provoked by antigen” value ([4]; injected 10 min prior to antigen (100 μg/kg)) was “protected the rats against anaphylactic hypotension; also recorded: reduced significantly”. The “protection against antigen elicited hypotension” value ([4]; lower (10 μg/kg) and higher (350 μg/kg) doses) was “Neither lower (10 μg/kg) nor higher doses (350 μg/kg) of SGP-T protected”.
